This note sets out measurements from patent US20250163022A1, “PARP1 INHIBITORS” (Synnovation Therapeutics, Inc., priority 2021, published 2025).

pIC50: −log10 of the molar value.

For the assay, the target named is T1, PARP1 (Homo sapiens, UniProt P09874).
T1 construct: HeLa cells (wide-type with PARP1 gene) were purchased from ATCC; host or cells: HeLa (wild type)
Nature of the assay: In-Cell Western measurement of PARylation in PARP1 WT and knockout cells. Type of assay: cell-based. Particulars: HeLa cells (wide-type with PARP1 gene); hydrogen peroxide-induced PARylation; compounds 30 min, then 10 mM hydrogen peroxide 15 min; read-out: HeLa_WT_IC50. From the text:
The purpose of this cell-based assay is to measure the potency and selectivity of synthesized PARP inhibitors in suppressing hydrogen peroxide-induced PARylation in cells with and without PARP1 expression. Several cell lines were used in this assay. The human PARP1 knockout HEK-293T cell line (#ab266598) was purchased from Abcam, and its corresponding wide-type control is the human wild-type HEK-293T cell line (#ab255449). The HAP1 isogenic cell lines with and without the PARP1 gene (#HZGHC003943c006) were purchased from Horizon Discovery. HeLa cells (wide-type with PARP1 gene) were purchased from ATCC. Cells were cultured using complete medium containing 10% fetal bovine serum. One day before the assay, cells were seeded in 96-well plates at the density of 20,000 cells per well in 100 uL complete medium. Compounds were dissolved using DMSO and diluted to the working concentrations using complete medium. Cells were pre-treated with compounds for 30 min and then stimulated with 10 mM hydrogen peroxide for 15 min. After stimulation, cells were immediately fixed using ice-cold methanol for 20 min. After fixation, cells were washed using 1×PBST buffer for 3 times, 5 min each time, to eliminate residual methanol. Cells were blocked for 2 h at room temperature in blocking buffer (LI-COR Biosciences, #927-70001). Primary antibody was diluted in diluent buffer (LI-COR Biosciences, #927-75001, 1:200) at 50 uL per well. Cells were incubated with the primary antibody at 4° C. for 18 h. The wells were then washed using 1×PBST for 3 times, 5 min each time. IRDye® 680RD Goat anti-Mouse IgG (H+L) secondary antibody was diluted at 1/2000 using the diluent buffer and added at 100 μL per well. Secondary antibody incubation was for 1 h at room temperature. Cells were then washed using 1×PBST for 3 times, 5 min each time. The signal was detected and analyzed using LI-COR Odyssey DLx Imaging system. Data were collected and further processed using GraphPad Prism for IC50 estimation.

T1 sequence (P09874 whole entry): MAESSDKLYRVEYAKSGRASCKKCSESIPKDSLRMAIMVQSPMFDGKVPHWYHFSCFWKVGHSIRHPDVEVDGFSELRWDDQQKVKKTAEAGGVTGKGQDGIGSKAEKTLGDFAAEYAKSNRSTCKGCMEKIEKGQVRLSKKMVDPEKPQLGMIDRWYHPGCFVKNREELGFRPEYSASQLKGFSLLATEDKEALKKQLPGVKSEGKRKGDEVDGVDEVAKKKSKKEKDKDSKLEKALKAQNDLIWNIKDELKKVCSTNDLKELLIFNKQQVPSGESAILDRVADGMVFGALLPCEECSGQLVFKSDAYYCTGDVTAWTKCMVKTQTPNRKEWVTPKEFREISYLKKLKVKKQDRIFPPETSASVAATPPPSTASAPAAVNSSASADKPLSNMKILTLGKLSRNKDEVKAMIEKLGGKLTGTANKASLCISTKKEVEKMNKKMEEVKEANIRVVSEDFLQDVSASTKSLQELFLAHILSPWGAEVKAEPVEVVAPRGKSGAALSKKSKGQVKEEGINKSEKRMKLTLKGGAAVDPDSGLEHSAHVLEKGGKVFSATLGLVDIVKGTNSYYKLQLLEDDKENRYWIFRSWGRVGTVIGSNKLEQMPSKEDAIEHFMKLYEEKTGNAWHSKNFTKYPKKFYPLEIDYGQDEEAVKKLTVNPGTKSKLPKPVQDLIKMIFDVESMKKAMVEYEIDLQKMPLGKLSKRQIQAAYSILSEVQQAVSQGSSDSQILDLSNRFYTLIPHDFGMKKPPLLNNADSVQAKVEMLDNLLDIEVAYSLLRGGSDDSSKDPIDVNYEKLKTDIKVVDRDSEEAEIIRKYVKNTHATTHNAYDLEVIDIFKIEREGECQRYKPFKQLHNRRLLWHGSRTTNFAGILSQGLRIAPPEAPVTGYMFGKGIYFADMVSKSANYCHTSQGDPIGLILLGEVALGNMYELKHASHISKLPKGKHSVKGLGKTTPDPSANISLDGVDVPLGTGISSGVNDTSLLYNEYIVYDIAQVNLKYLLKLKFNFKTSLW

`CCN1C(=O)Nc2c(F)c(CN3CCN(c4ccc(C(=O)NC5CC5)nc4C)CC3)cc3c(C)nnc1c23` [Compound I-56, N-cyclopropyl-5-(4-((9-ethyl-6-fluoro-3-methyl-8-oxo-8,9-dihydro-7H-pyridazino[3,4,5-de]quinazolin-5-yl)methyl)piperazin-1-yl)-6-methylpicolinamide]: the pIC50 was not below 8.00.
In the case of `CCN1C(=O)Nc2c(F)c(CN3CCN(c4ccc(C(=O)N[C@H]5CCCOC5)nc4C)CC3)cc3ncnc1c23` [Compound I-63, (S)-5-(4-((3-ethyl-9-fluoro-2-oxo-2,3-dihydro-1H-pyrimido[4,5,6-de]quinazolin-8-yl)methyl)piperazin-1-yl)-6-methyl-N-(tetrahydro-2H-pyran-3-yl)picolinamide] it was not below 8.00; in that of `CCNC(=O)c1ccc(N2CCN(Cc3cc(Cl)c4c(=O)n(C)c(=O)[nH]c4c3)CC2)c(C)n1` [Compound I-43, 5-(4-((5-Chloro-3-methyl-2,4-dioxo-1,2,3,4-tetrahydroquinazolin-7-yl)methyl)piperazin-1-yl)-N-ethyl-6-methylpicolinamide], not below 8.00.
For `CCN1Cc2ncc(CN3CCN(c4ccc(C(=O)NC)nc4)CC3)cc2NC1=O` [Compound I-11, 5-(4-((3-Ethyl-2-oxo-1,2,3,4-tetrahydropyrido[3,2-d]pyrimidin-7-yl)methyl)piperazin-1-yl)-N-methylpicolinamide], the pIC50 is 7.00 to 8.00.
In the case of `CNC(=O)c1ccc(N2CCN(Cc3cnc4c5c(c(=O)[nH]c4c3)CCC5)CC2)c(C(F)(F)F)n1` [Compound I-23, N-methyl-5-(4-((6-oxo-6,7,8,9-tetrahydro-5H-cyclopenta[c][1,5]naphthyridin-3-yl)methyl)piperazin-1-yl)-6-(trifluoromethyl)picolinamide] it was not below 8.00; in that of `CCN1Cc2ccc(CN3CCN(c4ccc(C(=O)NC)nc4)CC3)cc2NC1=O` [Compound I-2, 5-(4-((3-Ethyl-2-oxo-1,2,3,4-tetrahydroquinazolin-7-yl)methyl)piperazin-1-yl)-N-methylpicolinamide], 7.00 to 8.00; in that of `CNC(=O)c1ccc(N2CCN(Cc3cnc4c5c(c(=O)[nH]c4c3)CCC5)CC2)cn1` [Compound I-6, N-methyl-5-(4-((6-oxo-6,7,8,9-tetrahydro-5H-cyclopenta[c][1,5]naphthyridin-3-yl)methyl)piperazin-1-yl)picolinamide], not below 8.00.
For `CCn1c(=O)[nH]c2cc(CN3CCN(c4ccc(C(=O)NC)nc4C)CC3)cc(Cl)c2c1=O` [Compound I-32, 5-(4-((5-chloro-3-ethyl-2,4-dioxo-1,2,3,4-tetrahydroquinazolin-7-yl)methyl)piperazin-1-yl)-N,6-dimethylpicolinamide], the pIC50 was not below 8.00.
The figure for `CNC(=O)c1ccc(N2CCN(Cc3ccc4c(c3)[nH]c(=O)c3c4cnn3C)CC2)cn1` [Compound I-10, N-methyl-5-(4-((3-methyl-4-oxo-4,5-dihydro-3H-pyrazolo[3,4-c]quinolin-7-yl)methyl)piperazin-1-yl)picolinamide] is 7.00 to 8.00; for `[2H]C([2H])([2H])NC(=O)c1ccc(N2CCN(Cc3cc(F)c4c(=O)n(CC)c(=O)[nH]c4c3)CC2)c(C([2H])([2H])[2H])n1` [Compound I-36, 5-(4-((3-Ethyl-5-fluoro-2,4-dioxo-1,2,3,4-tetrahydroquinazolin-7-yl)methyl)piperazin-1-yl)-N,6-bis(methyl-d3)picolinamide] it is not below 8.00.
In the case of `CCNC(=O)c1ccc(N2CCN(Cc3cc(Cl)c4c(=O)n(CC)c(=O)[nH]c4c3)CC2)c(C)n1` [Compound I-48, 5-(4-((5-chloro-3-ethyl-2,4-dioxo-1,2,3,4-tetrahydroquinazolin-7-yl)methyl)piperazin-1-yl)-N-ethyl-6-methylpicolinamide] it was not below 8.00.
The figure for `CNC(=O)c1ccc(N2CCN(Cc3ncc4c5c(c(=O)[nH]c4c3F)CCC5)CC2)c(C(F)(F)F)n1` [Compound I-28, 5-(4-((4-Fluoro-6-oxo-6,7,8,9-tetrahydro-5H-cyclopenta[c][1,6]naphthyridin-3-yl)methyl)piperazin-1-yl)-N-methyl-6-(trifluoromethyl)picolinamide] is not below 8.00.
For `CCN1C(=O)Nc2c(F)c(CN3CCN(c4ccc(C(=O)NC5(CC#N)CC5)cc4C)CC3)cc3ncnc1c23` [Compound I-93, N-(1-(cyanomethyl)cyclopropyl)-4-(4-((3-ethyl-9-fluoro-2-oxo-2,3-dihydro-1H-pyrimido[4,5,6-de]quinazolin-8-yl)methyl)piperazin-1-yl)-3-methylbenzamide], the pIC50 is not below 8.00.
As for `[2H]C([2H])([2H])NC(=O)c1ccc(N2CCN(Cc3ccc4c(=O)n(CC)c(=O)[nH]c4c3)CC2)c(C([2H])([2H])[2H])n1` [Compound I-44, 5-(4-((3-ethyl-2,4-dioxo-1,2,3,4-tetrahydroquinazolin-7-yl)methyl)piperazin-1-yl)-N,6-bis(methyl-d3)picolinamide], the pIC50 is not below 8.00.
For the compound `CCN1C(=O)Nc2c(F)c(CN3CCN(c4ccc(C(=O)N[C@@H]5[C@@H]6COC[C@@H]65)nc4C)CC3)cc3ncnc1c23` [Compound I-69, N-((1R,5S,6s)-3-oxabicyclo[3.1.0]hexan-6-yl)-5-(4-((3-ethyl-9-fluoro-2-oxo-2,3-dihydro-1H-pyrimido[4,5,6-de]quinazolin-8-yl)methyl)piperazin-1-yl)-6-methylpicolinamide], the pIC50 is 7.00 to 8.00.
As for `CCc1cc2sc(CN3CCN(c4ccc(C(=O)NC)nc4)CC3)cc2[nH]c1=O` [Compound I-13, 5-(4-((6-Ethyl-5-oxo-4,5-dihydrothieno[3,2-b]pyridin-2-yl)methyl)piperazin-1-yl)-N-methylpicolinamide], the pIC50 is not below 8.00.
In the case of `CCN1C(=O)Nc2c(F)c(CN3CCN(c4ccc(C(=O)NC5CC5)c(F)c4F)CC3)cc3ncnc1c23` [Compound I-90, N-cyclopropyl-4-(4-((3-ethyl-9-fluoro-2-oxo-2,3-dihydro-1H-pyrimido[4,5,6-de]quinazolin-8-yl)methyl)piperazin-1-yl)-2,3-difluorobenzamide] it was not below 8.00; in that of `CNC(=O)c1ccc(N2CCN(Cc3cc(C(F)F)c4c(=O)n(C)c(=O)[nH]c4c3)CC2)c(C)n1` [Compound I-47, 5-(4-((5-(Difluoromethyl)-3-methyl-2,4-dioxo-1,2,3,4-tetrahydroquinazolin-7-yl)methyl)piperazin-1-yl)-N,6-dimethylpicolinamide], not below 8.00.
In the case of `CCN1C(=O)Nc2cc(CN3CCN(c4ccc(C(=O)NC)nc4C)CC3)cc3ncnc1c23` [Compound I-17, 5-(4-((3-Ethyl-2-oxo-2,3-dihydro-1H-pyrimido[4,5,6-de]quinazolin-8-yl)methyl)piperazin-1-yl)-N,6-dimethylpicolinamide] it was not below 8.00.
In the case of `CCn1c(=O)[nH]c2cc(CN3CCN(c4ccc(C(=O)NC)nc4F)CC3)cc(F)c2c1=O` [Compound I-33, 5-(4-((3-Ethyl-5-fluoro-2,4-dioxo-1,2,3,4-tetrahydroquinazolin-7-yl)methyl)piperazin-1-yl)-6-fluoro-N-methylpicolinamide] it was not below 8.00.
Regarding `CCN1C(=O)Nc2cc(CN3CCN(c4ccc(C(=O)NC)nc4)CC3)cc3ncnc1c23` [Compound I-15, 5-(4-((3-Ethyl-2-oxo-2,3-dihydro-1H-pyrimido[4,5,6-de]quinazolin-8-yl)methyl)piperazin-1-yl)-N-methylpicolinamide], the pIC50 is not below 8.00.
The figure for `CCN1C(=O)Nc2cc(CN3CCN(c4ccc(C(=O)NC)nc4F)CC3)cc3ncnc1c23` [Compound I-19, 5-(4-((3-ethyl-2-oxo-2,3-dihydro-1H-pyrimido[4,5,6-de]quinazolin-8-yl)methyl)piperazin-1-yl)-6-fluoro-N-methylpicolinamide] is not below 8.00.
In the case of `CCN1C(=O)Nc2c(F)c(CN3CCN(c4ccc(C(=O)N[C@H]5CCOC5)nc4C)CC3)cc3ncnc1c23` [Compound I-73, (S)-5-(4-((3-ethyl-9-fluoro-2-oxo-2,3-dihydro-1H-pyrimido[4,5,6-de]quinazolin-8-yl)methyl)piperazin-1-yl)-6-methyl-N-(tetrahydrofuran-3-yl)picolinamide] it was not below 8.00; in that of `CCN1C(=O)Nc2c(F)c(CN3CCN(c4ccc(C(=O)NOCC5CC5)nc4C)CC3)cc3ncnc1c23` [Compound I-58, N-(cyclopropylmethoxy)-5-(4-((3-ethyl-9-fluoro-2-oxo-2,3-dihydro-1H-pyrimido[4,5,6-de]quinazolin-8-yl)methyl)piperazin-1-yl)-6-methylpicolinamide], not below 8.00; in that of `CCN1C(=O)Nc2c(F)c(CN3CCN(c4ccc(C(=O)NC)nc4C)CC3)cc3c(C)nnc1c23` [Compound I-54, 5-(4-((9-Ethyl-6-fluoro-3-methyl-8-oxo-8,9-dihydro-7H-pyridazino[3,4,5-de]quinazolin-5-yl)methyl)piperazin-1-yl)-N,6-dimethylpicolinamide], not below 8.00.
